From patent US12539292B2, “BRM targeting compounds and associated methods of use” (Arvinas Operations, Inc., priority 2018, dated 2026)
Where two headings read alike, the source gives them in different places.

Target: T1, BRM (Homo sapiens, UniProt P51531)
T1 construct: In-Cell Western Screen of BRM Degradation in SW1573 Cells; endogenous in cells; host or cells: SW1573
Test: In-cell Western screen of BRM degradation in SW1573 cells (Dmax and DC50)
Format: cell-based
Procedure, shortened: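 BRM levels were read by LI-COR in-cell Western after two-channel (800/680 nm) immunostaining of fixed, Triton-permeabilised SW1573 cells.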

[1] = BRM degradation, SW1573 cells, read-out: DC50
[2] = BRM degradation, SW1573 cells, when tested at the top concentration of between 0.3 and 10 μM, read-out: Dmax (%) (% degraded)
[3] = SW1573, % degraded, when tested at the top concentration of between 0.3 and 10 μM, read-out: BRM Dmax (%)
[4] = degradation of BRM, read-out: BRM DC50
[5] = target protein degradation, read-out: BRM DC50
[6] = BRM degradation, SW1573 cells, read-out: Dmax (% degraded)

T1 sequence (P51531 whole entry): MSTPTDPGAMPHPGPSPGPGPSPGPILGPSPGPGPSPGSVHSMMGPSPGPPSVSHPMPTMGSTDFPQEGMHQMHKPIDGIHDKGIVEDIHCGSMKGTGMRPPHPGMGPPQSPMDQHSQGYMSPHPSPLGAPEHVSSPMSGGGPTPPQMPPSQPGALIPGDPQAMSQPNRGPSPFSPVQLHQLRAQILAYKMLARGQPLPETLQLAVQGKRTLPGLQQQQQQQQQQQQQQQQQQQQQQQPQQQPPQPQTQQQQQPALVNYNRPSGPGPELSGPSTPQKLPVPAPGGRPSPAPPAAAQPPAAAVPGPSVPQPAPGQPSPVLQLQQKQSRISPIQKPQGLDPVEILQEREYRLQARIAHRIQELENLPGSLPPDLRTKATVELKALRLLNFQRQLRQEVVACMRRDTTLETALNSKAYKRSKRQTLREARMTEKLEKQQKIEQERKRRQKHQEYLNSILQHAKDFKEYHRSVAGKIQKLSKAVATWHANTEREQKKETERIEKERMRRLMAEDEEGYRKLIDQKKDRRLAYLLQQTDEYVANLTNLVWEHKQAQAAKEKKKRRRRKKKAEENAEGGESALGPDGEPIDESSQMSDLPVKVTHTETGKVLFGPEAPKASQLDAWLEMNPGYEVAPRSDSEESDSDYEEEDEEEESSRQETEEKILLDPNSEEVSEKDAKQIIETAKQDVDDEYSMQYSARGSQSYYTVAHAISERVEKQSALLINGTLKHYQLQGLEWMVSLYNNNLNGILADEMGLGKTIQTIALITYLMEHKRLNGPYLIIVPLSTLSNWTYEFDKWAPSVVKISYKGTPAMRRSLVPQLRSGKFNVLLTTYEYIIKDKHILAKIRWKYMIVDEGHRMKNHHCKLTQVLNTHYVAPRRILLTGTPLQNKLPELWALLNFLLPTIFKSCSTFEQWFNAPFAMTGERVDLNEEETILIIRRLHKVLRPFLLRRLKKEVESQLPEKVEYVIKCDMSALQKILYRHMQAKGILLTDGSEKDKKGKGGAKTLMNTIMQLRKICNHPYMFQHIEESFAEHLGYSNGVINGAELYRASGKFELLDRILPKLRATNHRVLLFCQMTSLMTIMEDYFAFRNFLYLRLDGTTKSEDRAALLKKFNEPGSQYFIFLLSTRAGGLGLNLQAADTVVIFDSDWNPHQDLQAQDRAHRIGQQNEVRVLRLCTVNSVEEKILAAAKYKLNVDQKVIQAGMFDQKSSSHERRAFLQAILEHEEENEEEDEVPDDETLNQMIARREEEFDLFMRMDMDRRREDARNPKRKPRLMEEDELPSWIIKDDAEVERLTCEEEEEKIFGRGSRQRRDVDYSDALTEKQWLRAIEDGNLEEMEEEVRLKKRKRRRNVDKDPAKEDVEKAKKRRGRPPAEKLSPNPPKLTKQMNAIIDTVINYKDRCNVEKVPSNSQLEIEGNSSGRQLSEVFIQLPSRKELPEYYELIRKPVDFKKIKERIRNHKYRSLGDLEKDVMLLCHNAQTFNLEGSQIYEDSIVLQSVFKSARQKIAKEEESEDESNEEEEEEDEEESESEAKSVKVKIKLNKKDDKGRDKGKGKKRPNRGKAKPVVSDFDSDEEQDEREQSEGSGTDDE

Cc1ncsc1-c1ccc([C@H](C)NC(=O)[C@@H]2C[C@@H](O)CN2C(=O)[C@H](c2onc(OCCN3CCN(CCOc4cc(N5C6CCC5CN(c5cc(-c7ccccc7O)nnc5N)C6)ccn4)CC3)c2Cl)C(C)C)cc1 [compound 54, (2S,4R)-1-((2S)-2-(3-(2-(4-(2-((4-(3-(3-amino-6-(2-hydroxyphenyl)pyridazin-4-yl)-3,8-diazabicyclo[3.2.1]octan-8-yl)pyridin-2-yl)oxy)ethyl)piperazin-1-yl)ethoxy)-4-chloroisoxazol-5-yl)-3-methylbutanoyl)-4-hydroxy-N-((S)-1-(4-(4-methylthiazol-5-yl)phenyl)ethyl)pyrrolidine-2-carboxamide]
DC50 [1]: > 30 nM
Dmax [2]: > 75%

Cc1ncsc1-c1ccc([C@H](CN)NC(=O)[C@@H]2C[C@@H](O)CN2C(=O)[C@@H](c2cc(OCCN3CCN(CCOc4cc(N5C6CCC5CN(c5cc(-c7ccccc7O)nnc5N)C6)ccn4)CC3)no2)C(C)C)cc1 [compound 103, (2S,4R)-N-((R)-2-amino-1-(4-(4-methylthiazol-5-yl)phenyl)ethyl)-1-((2R)-2-(3-(2-(4-(2-((4-(3-(3-amino-6-(2-hydroxyphenyl)pyridazin-4-yl)-3,8-diazabicyclo[3.2.1]octan-8-yl)pyridin-2-yl)oxy)ethyl)piperazin-1-yl)ethoxy)isoxazol-5-yl)-3-methylbutanoyl)-4-hydroxypyrrolidine-2-carboxamide]
DC50 [1]: 2.5 to 10 nM
Dmax [2]: > 75%

Cc1ncsc1-c1ccc([C@H](C)NC(=O)[C@@H]2C[C@@H](O)CN2C(=O)[C@@H](c2cc(OCCOCCOCCCCN3CC4(CCN(c5cc(-c6ccccc6O)nnc5N)CC4)C3)no2)C(C)C)cc1 [compound 72, (2S,4R)-1-((R)-2-(3-(2-(2-(4-(7-(3-amino-6-(2-hydroxyphenyl)pyridazin-4-yl)-2,7-diazaspiro[3.5]nonan-2-yl)butoxy)ethoxy)ethoxy)isoxazol-5-yl)-3-methylbutanoyl)-4-hydroxy-N-((S)-1-(4-(4-methylthiazol-5-yl)phenyl)ethyl)pyrrolidine-2-carboxamide]
DC50 [1]: 10 to 30 nM
Dmax [2]: > 75%

Cc1ncsc1-c1ccc([C@H](C)NC(=O)[C@@H]2C[C@@H](O)CN2C(=O)[C@@H](c2cc(N3CCC(OC4CCN(CC5CC(CN6CCC([C@H](C)n7cc(-c8cc(-c9ccccc9O)nnc8N)cn7)CC6)C5)CC4)CC3)no2)C(C)C)cc1 (single isomer, unassigned) [compound 594]
Dmax (BRM degradation, SW1573 cells, Table 2D, read-out: **Dmax (%) (% degraded)): > 75%
DC50 (BRM degradation, SW1573 cells, Table 2D, read-out: *DC50): < 2.5 nM

Cc1ncsc1-c1ccc([C@@H](NC(=O)[C@@H]2C[C@@H](O)CN2C(=O)[C@@H](c2cc(OCCN3CCC(O[C@H]4C[C@H](Oc5cc(N6C7CCC6CN(c6cc(-c8ccccc8O)nnc6N)C7)ccn5)C4)CC3)no2)C(C)C)C(F)F)cc1 [compound 268, (2S,4R)-1-((2R)-2-(3-(2-(4-((1r,3R)-3-((4-(3-(3-amino-6-(2-hydroxyphenyl)pyridazin-4-yl)-3,8-diazabicyclo[3.2.1]octan-8-yl)pyridin-2-yl)oxy)cyclobutoxy)piperidin-1-yl)ethoxy)isoxazol-5-yl)-3-methylbutanoyl)-N-((R)-2,2-difluoro-1-(4-(4-methylthiazol-5-yl)phenyl)ethyl)-4-hydroxypyrrolidine-2-carboxamide]
DC50 [1]: < 2.5 nM
Dmax (BRM degradation, SW1573 cells, tested at the top concentration of between 0.3 and 10 μM, read-out: Dmax (%) (% degraded)): > 75%

Cc1nccn1-c1ccc([C@H](C)NC(=O)[C@@H]2C[C@@H](O)CN2C(=O)[C@@H](c2cc(N3CCN(CCN4CCC(O[C@H]5C[C@H](Oc6cc(N7C8CCC7CN(c7cc(-c9ccccc9O)nnc7N)C8)ccn6)C5)CC4)CC3)no2)C(C)C)cc1 [compound 413, (2S,4R)-1-((2R)-2-(3-(4-(2-(4-((1r,3r)-3-((4-(3-(3-amino-6-(2-hydroxyphenyl)pyridazin-4-yl)-3,8-diazabicyclo[3.2.1]octan-8-yl)pyridin-2-yl)oxy)cyclobutoxy)piperidin-1-yl)ethyl)piperazin-1-yl)isoxazol-5-yl)-3-methylbutanoyl)-4-hydroxy-N-((S)-1-(4-(2-methyl-1H-imidazol-1-yl)phenyl)ethyl)pyrrolidine-2-carboxamide]
Dmax [3]: > 75%
DC50 [4]: < 2.5 nM

Cc1ncsc1-c1ccc([C@H](C)NC(=O)[C@@H]2C[C@@H](O)CN2C(=O)[C@@H](c2cc(OCCN3CCC(O[C@H]4C[C@H](C#C[C@H](C)n5cc(-c6cc(-c7ccccc7O)nnc6N)cn5)C4)CC3)no2)C(C)C)cc1 [compound 415, (2S,4R)-1-((R)-2-(3-(2-(4-((1S,3R)-3-((S)-3-(4-(3-amino-6-(2-hydroxyphenyl)pyridazin-4-yl)-1H-pyrazol-1-yl)but-1-yn-1-yl)cyclobutoxy)piperidin-1-yl)ethoxy)isoxazol-5-yl)-3-methylbutanoyl)-4-hydroxy-N-((S)-1-(4-(4-methylthiazol-5-yl)phenyl)ethyl)pyrrolidine-2-carboxamide]
Dmax [3]: > 75%
DC50 [4]: < 2.5 nM

Cc1ncsc1-c1ccc([C@H](C)NC(=O)[C@@H]2C[C@@H](O)CN2C(=O)[C@@H](c2cc(OCCC3CCN(C(=O)[C@H]4C[C@@H](CN5CCC(n6cc(-c7cc(-c8ccccc8O)nnc7N)cn6)CC5)C4)CC3)no2)C(C)C)cc1 [compound 466, (2S,4R)-1-((R)-2-(3-(2-(1-((1s,3S)-3-((4-(4-(3-amino-6-(2-hydroxyphenyl)pyridazin-4-yl)-1H-pyrazol-1-yl)piperidin-1-yl)methyl)cyclobutane-1-carbonyl)piperidin-4-yl)ethoxy)isoxazol-5-yl)-3-methylbutanoyl)-4-hydroxy-N-((S)-1-(4-(4-methylthiazol-5-yl)phenyl)ethyl)pyrrolidine-2-carboxamide]
DC50 [5]: > 30 nM

Cc1ncsc1-c1ccc([C@H](C)NC(=O)[C@@H]2C[C@@H](O)CN2C(=O)[C@@H](c2cc(OCCOCCOCCCCN3CC4(C3)CN(c3cc(-c5ccccc5O)nnc3N)C4)no2)C(C)C)cc1 [compound 66, (2S,4R)-1-((R)-2-(3-(2-(2-(4-(6-(3-amino-6-(2-hydroxyphenyl)pyridazin-4-yl)-2,6-diazaspiro[3.3]heptan-2-yl)butoxy)ethoxy)ethoxy)isoxazol-5-yl)-3-methylbutanoyl)-4-hydroxy-N-((S)-1-(4-(4-methylthiazol-5-yl)phenyl)ethyl)pyrrolidine-2-carboxamide]
DC50 [1]: > 30 nM
Dmax [2]: > 75%

Cc1ncsc1-c1ccc([C@H](C)NC(=O)[C@@H]2C[C@@H](O)CN2C(=O)[C@H](c2cc(N3CCC(C(C)N4CCC(O[C@H]5C[C@H](Oc6cc(N7C8CCC7CN(c7cc(-c9ccccc9O)nnc7N)C8)ccn6)C5)CC4)CC3)no2)C(C)C)cc1 (stereo partly drawn) [compound 643, (2S,4R)-1-((2S)-2-(3-(4-(1-(4-((1r,3r)-3-((4-(3-(3-amino-6-(2-hydroxyphenyl)pyridazin-4-yl)-3,8-diazabicyclo[3.2.1]octan-8-yl)pyridin-2-yl)oxy)cyclobutoxy)piperidin-1-yl)ethyl)piperidin-1-yl)isoxazol-5-yl)-3-methylbutanoyl)-4-hydroxy-N-((S)-1-(4-(4-methylthiazol-5-yl)phenyl)ethyl)pyrrolidine-2-carboxamide]
DC50 [1]: < 2.5 nM
Dmax [6]: > 75%

Cc1ncsc1-c1ccc([C@H](C)NC(=O)[C@@H]2C[C@@H](O)CN2C(=O)[C@@H](c2cc(C#CCN3CCC(O[C@H]4C[C@H](Oc5cc(N6C7CCC6CN(c6cc(-c8ccccc8O)nnc6N)C7)ccn5)C4)CC3)no2)C(C)C)cc1 [compound 380, (2S,4R)-1-((2R)-2-(3-(3-(4-((1r,3R)-3-((4-(3-(3-amino-6-(2-hydroxyphenyl)pyridazin-4-yl)-3,8-diazabicyclo[3.2.1]octan-8-yl)pyridin-2-yl)oxy)cyclobutoxy)piperidin-1-yl)prop-1-yn-1-yl)isoxazol-5-yl)-3-methylbutanoyl)-4-hydroxy-N-((S)-1-(4-(4-methylthiazol-5-yl)phenyl)ethyl)pyrrolidine-2-carboxamide]
Dmax [3]: > 75%
DC50 [5]: < 2.5 nM

Cc1ncsc1-c1ccc([C@H](C)NC(=O)[C@@H]2C[C@@H](O)CN2C(=O)[C@@H](c2cc(OCCN3CCC4(CC3)CC(OCCN3CCOC5(CCN(c6cc(-c7ccccc7O)nnc6N)CC5)C3)C4)no2)C(C)C)cc1 [compound 93, (2S,4R)-1-((R)-2-(3-(2-(2-(2-(9-(3-amino-6-(2-hydroxyphenyl)pyridazin-4-yl)-1-oxa-4,9-diazaspiro[5.5]undecan-4-yl)ethoxy)-7-azaspiro[3.5]nonan-7-yl)ethoxy)isoxazol-5-yl)-3-methylbutanoyl)-4-hydroxy-N-((S)-1-(4-(4-methylthiazol-5-yl)phenyl)ethyl)pyrrolidine-2-carboxamide]
DC50 [1]: < 2.5 nM
Dmax [2]: > 75%

C#Cc1ccc([C@H](C)NC(=O)[C@@H]2C[C@@H](O)CN2C(=O)[C@@H](c2cc(N3CCC(CN4CCC(O[C@H]5C[C@H](Oc6cc(N7C8CCC7CN(c7cc(-c9ccccc9O)nnc7N)C8)ccn6)C5)CC4)CC3)no2)C(C)C)cc1 [compound 678, (2S,4R)-1-((2R)-2-(3-(4-((4-((1r,3r)-3-((4-(3-(3-amino-6-(2-hydroxyphenyl)pyridazin-4-yl)-3,8-diazabicyclo[3.2.1]octan-8-yl)pyridin-2-yl)oxy)cyclobutoxy)piperidin-1-yl)methyl)piperidin-1-yl)isoxazol-5-yl)-3-methylbutanoyl)-N-((S)-1-(4-ethynylphenyl)ethyl)-4-hydroxypyrrolidine-2-carboxamide]
DC50 [1]: < 2.5 nM
Dmax [6]: > 75%
